From ChEMBL document CHEMBL6121066, “Structure-Activity Relationship Studies of DNA Methyltransferase 1 Monovalent Degraders” (J Med Chem, 2025)
Active and inactive are the calls of the source.

Key:
HCT-116 [1] = assay: Induction of molecular glue effect mediated DNMT1 degradation in human HCT-116 cells assessed as reduction in DNMT1 protein level incubated for 24 hrs by Western blot analysis; assay type: cell-based
HCT-116 [2] = assay: Induction of molecular glue effect mediated DNMT1 degradation in human HCT-116 cells assessed as reduction in DNMT1 protein level by measuring maximal efficacy at 1 uM incubated for 24 hrs by Western blot analysis relative to control; assay type: cell-based
HCT-116 [3] = assay: Induction of molecular glue effect mediated DNMT1 degradation in human HCT-116 cells assessed as reduction in DNMT1 protein level at 500 nM by Western blot analysis; assay type: cell-based; conditions: time 2-24 hrs
HCT-116 [4] = assay: Induction of molecular glue effect mediated DNMT1 degradation in human HCT-116 cells assessed as reduction in DNMT1 protein level at 500 nM measured after 2 hrs by Western blot analysis relative to control; assay type: cell-based; parameters: scale not given: the % may be the effect or the level left
HCT-116 [5] = assay: Induction of molecular glue effect mediated DNMT1 degradation in human HCT-116 cells assessed as reduction in DNMT1 protein level at 500 nM measured after 24 hrs by Western blot analysis relative to control; assay type: cell-based; parameters: scale not given: the % may be the effect or the level left
HCT-116 [6] = assay: Induction of molecular glue effect mediated DNMT1 degradation in human HCT-116 cells assessed as reduction in DNMT1 protein level by measuring half-life at 500 nM preincubated with cycloheximide for 2 hrs followed by compound administration and measured after 24 hrs by Western blot analysis; assay type: cell-based
HCT-116 [7] = assay: Effect on DNMT1 mRNA level in human HCT-116 cells at 500 nM incubated for 24 hrs by RT-qPCR analysis; assay type: functional, cell-based
HCT-116 [8] = assay: Antiproliferative activity against human HCT-116 cells assessed as inhibition of cell growth upto 15 uM incubated for 7 days by CCK8 assay relative to control; assay type: functional; conditions: time 7 day, up to 15 µM
MDA-MB-468 [9] = assay: Effect on DNMT1 mRNA level in human MDA-MB-468 cells at 500 nM incubated for 24 hrs by RT-qPCR analysis; assay type: functional, cell-based
NCI-H1299 [10] = assay: Effect on DNMT1 mRNA level in human NCI-H1299 cells at 500 nM incubated for 24 hrs by RT-qPCR analysis; assay type: functional, cell-based
HCT-116 [11] = assay: Induction of molecular glue effect mediated DNMT3A degradation in human HCT-116 cells assessed as reduction in DNMT3A protein level at 500 nM incubated for 24 hrs by Western blot analysis; assay type: cell-based
HCT-116 [12] = assay: Induction of molecular glue effect mediated DNMT3B degradation in human HCT-116 cells assessed as reduction in DNMT3B protein level at 500 nM incubated for 24 hrs by Western blot analysis; assay type: cell-based
HCT-116 [13] = assay: Downregulation of DNMT1 protein level in human HCT-116 cells at 1 uM incubated for 12 hrs by MS-based global proteomic analysis; assay type: functional, cell-based
MV4-11 = assay: Antiproliferative activity against human MV4-11 cells assessed as inhibition of cell growth at 0.177 to 15 uM incubated for 7 days by CCK8 assay; assay type: functional, cell-based; conditions: dose 0.177-15 µM, time 7.0 day
HCT-116 [14] = assay: Induction of molecular glue effect mediated DNMT1 degradation in human HCT-116 cells assessed as reduction in DNMT1 protein level at 100 nM preincubated with MG132 for 2 hrs followed by compound addition and measured after 24 hrs by Western blot analysis; assay type: cell-based
HCT-116 [15] = assay: Induction of molecular glue effect mediated DNMT1 degradation in human HCT-116 cells assessed as reduction in DNMT1 protein level at 100 nM preincubated with lysosome inhibitor CQ for 2 hrs followed by compound addition and measured after 24 hrs by Western blot analysis; assay type: cell-based
MDA-MB-468 [16] = assay: Induction of molecular glue effect mediated DNMT1 degradation in human MDA-MB-468 cells assessed as reduction in DNMT1 protein level at 100 nM preincubated with MG132 for 2 hrs followed by compound addition and measured after 24 hrs by Western blot analysis; assay type: cell-based
NCI-H1299 [17] = assay: Induction of molecular glue effect mediated DNMT1 degradation in human NCI-H1299 cells assessed as reduction in DNMT1 protein level at 100 nM preincubated with MG132 for 2 hrs followed by compound addition and measured after 24 hrs by Western blot analysis; assay type: cell-based
HCT-116 [18] = assay: Induction of molecular glue effect mediated DNMT1 degradation in human HCT-116 cells assessed as reduction in DNMT1 protein level at 100 nM preincubated with TAK-243 for 2 hrs followed by compound addition and measured after 24 hrs by Western blot analysis; assay type: cell-based
HCT-116 [19] = assay: Induction of molecular glue effect mediated DNMT1 degradation in human HCT-116 cells assessed as reduction in DNMT1 protein level at 100 nM preincubated with MLN4924 for 2 hrs followed by compound addition and measured after 24 hrs by Western blot analysis; assay type: cell-based
MDA-MB-468 [20] = assay: Induction of molecular glue effect mediated DNMT1 degradation in human MDA-MB-468 cells assessed as reduction in DNMT1 protein level at 100 nM preincubated with MLN4924 for 2 hrs followed by compound addition and measured after 24 hrs by Western blot analysis; assay type: cell-based
NCI-H1299 [21] = assay: Induction of molecular glue effect mediated DNMT1 degradation in human NCI-H1299 cells assessed as reduction in DNMT1 protein level at 100 nM preincubated with MLN4924 for 2 hrs followed by compound addition and measured after 24 hrs by Western blot analysis; assay type: cell-based
HCT-116 [22] = assay: Induction of molecular glue effect mediated DNMT1 degradation in human HCT-116 cells assessed as reduction in DNMT1 protein level at 100 nM preincubated with TRAF6 inhibitor C25-140 for 2 hrs followed by compound addition and measured after 24 hrs by Western blot analysis; assay type: cell-based
HCT-116 [23] = assay: Induction of molecular glue effect mediated DNMT1 degradation in human HCT-116 cells assessed as reduction in DNMT1 protein level at 100 nM preincubated with heclin for 2 hrs followed by compound addition and measured after 24 hrs by Western blot analysis; assay type: cell-based
HCT-116 [24] = assay: Induction of molecular glue effect mediated DNMT1 degradation in human HCT-116 cells transfected with Smurf2 siRNA assessed as reduction in DNMT1 protein level at 100 nM measured after 24 hrs by Western blot analysis; assay type: cell-based
HCT-116 [25] = assay: Induction of molecular glue effect mediated DNMT1 degradation in human HCT-116 cells transfected with NEDD4 siRNA assessed as reduction in DNMT1 protein level at 100 nM measured after 24 hrs by Western blot analysis; assay type: cell-based
HCT-116 [26] = assay: Induction of molecular glue effect mediated DNMT1 degradation in human HCT-116 cells transfected with WWP1 siRNA assessed as reduction in DNMT1 protein level at 100 nM measured after 24 hrs by Western blot analysis; assay type: cell-based
HCT-116 [27] = assay: Induction of molecular glue effect mediated DNMT1 degradation in human HCT-116 cells transfected with UHRF1 siRNA assessed as reduction in DNMT1 protein level at 100 nM measured after 24 hrs by Western blot analysis; assay type: cell-based

CCc1c(C#N)c(SC(C(N)=O)c2ccccc2)nc(N2CCC(N)CC2)c1C#N (stereo not drawn)
< 4 h: T1/2 (HCT-116 [6])
<50%: inhibition (INH) (HCT-116 [8])
< 30%: Activity (HCT-116 [4])
89%: Emax (HCT-116 [2])
100%: Activity (HCT-116 [5])
inactive: Activity (HCT-116 [7]) | Activity (MDA-MB-468 [9]) | Activity (NCI-H1299 [10]) | Activity (HCT-116 [11]) | Activity (HCT-116 [12]) | Activity (HCT-116 [14]) | Activity (MDA-MB-468 [16]) | Activity (NCI-H1299 [17]) | Activity (HCT-116 [18]) | Activity (HCT-116 [23]) Not active; Partial Rescue Of Degradation Observed | Activity (HCT-116 [27]) Not active; Partial Rescue Of Degradation Observed
active: Activity (HCT-116 [1]) Dose-dependent-effect | Activity (HCT-116 [3]) Time-dependent-effect | Activity (HCT-116 [13]) | Activity (MV4-11) | Activity (HCT-116 [15]) | Activity (HCT-116 [19]) | Activity (MDA-MB-468 [20]) | Activity (NCI-H1299 [21]) | Activity (HCT-116 [22]) | Activity (HCT-116 [24]) | Activity (HCT-116 [25]) | Activity (HCT-116 [26])
